# How the values were obtained:
# recombinant HuBraf V600E = recombinant HuBraf V600E (Homo sapiens, UniProt P15056, V600E); assay: B-raf Homogenous Time Resolved Fluorescent (HTRF) kinase assay; assay type: biochemical; details: Table I; human mutant B-raf V600E, substrate MEK1, 10 uM ATP; read-out: HTRF Enzyme assay Data IC50
# Experimental: B-raf-Homogenous Time Resolved Fluorescent (HTRF) Kinase Assay
# The final concentration of the kinase reaction buffer is 50 mM Tris-HCL pH 7.5, 10 mM MgCl2, 0.5% glucose, 0.5 mM DTT, 0.01% BSA. […] The detection reaction proceeds for one hour and is read on a RubyStar (BMG Labtech) counter. IC50s for the test compounds are generated using Excel-XLfit software.
# V600E mutant B-raf = target: T1, V600E mutant B-raf (Homo sapiens, UniProt P15056, V600E); assay: B-raf cell-based assay (ratio of phospho-ERK1/2 to total ERK1/2 in A375 cells); details: Table I; A375 human melanoma cells, P-ERK/total ERK
# T1 construct: A375 cells, a human melanoma cell line having the V600E mutant B-raf is used in this assay; endogenous in cells; host or cells: A375 human melanoma cells
# Experimental: A cell-based assay was optimized to assay the ability of compounds to inhibit B-raf activity in a whole cell context. […] The cell-based assay quantifies the ratio of phospho-ERK1/2 to total ERK1/2 and can thereby assay the cellular inhibition of B-raf kinase activity. A375 cells are plated into 96 well plates and grown to confluence. The cells are then changed into starve media (DMEM/0.1% BSA) for 60 minutes. Compounds in DMSO dose curves are then diluted in starve media and added to cells. […] After a 60 minute incubation the cells are fixed for 20 minutes at RT in 4% formaldehyde with 0.1% Triton X-100, protease and phosphatase inhibitors in PBS. The cells are washed four times in PBS then blocked for 60 minutes using a one to one mix of Odyssey blocking buffer (Li-Cor Biosciences, Inc) and PBS. Primary antibodies (rabbit anti-phospho p42/p44 MAPK (P-ERK1/2) from Cell Signaling Technology and mouse anti-ERK2 from Santa Cruz Biotechnology) are diluted in blocking buffer, added to the cells and incubated overnight at 4° C. The cells are then washed four times in PBS/0.1% Tween-20. Secondary antibodies (anti-mouse IRDye 800CW from Rockland, Inc and anti-rabbit AlexaFlour680 from Molecular Probes) are diluted in blocking buffer/0.5% Tween and incubated on cells for 60 minutes. After 4 washes in PBS/0.1% Tween-20 the microplate is scanned on an Odyssey Infrared Imager (Li-Cor Bioscience) which can read the signal given by the two secondary antibodies on their respective channels. The ratio of P-ERK/total ERK is determined and IC50s generated using Excel-XLfit software.
# T1 sequence (P15056 whole entry V600E): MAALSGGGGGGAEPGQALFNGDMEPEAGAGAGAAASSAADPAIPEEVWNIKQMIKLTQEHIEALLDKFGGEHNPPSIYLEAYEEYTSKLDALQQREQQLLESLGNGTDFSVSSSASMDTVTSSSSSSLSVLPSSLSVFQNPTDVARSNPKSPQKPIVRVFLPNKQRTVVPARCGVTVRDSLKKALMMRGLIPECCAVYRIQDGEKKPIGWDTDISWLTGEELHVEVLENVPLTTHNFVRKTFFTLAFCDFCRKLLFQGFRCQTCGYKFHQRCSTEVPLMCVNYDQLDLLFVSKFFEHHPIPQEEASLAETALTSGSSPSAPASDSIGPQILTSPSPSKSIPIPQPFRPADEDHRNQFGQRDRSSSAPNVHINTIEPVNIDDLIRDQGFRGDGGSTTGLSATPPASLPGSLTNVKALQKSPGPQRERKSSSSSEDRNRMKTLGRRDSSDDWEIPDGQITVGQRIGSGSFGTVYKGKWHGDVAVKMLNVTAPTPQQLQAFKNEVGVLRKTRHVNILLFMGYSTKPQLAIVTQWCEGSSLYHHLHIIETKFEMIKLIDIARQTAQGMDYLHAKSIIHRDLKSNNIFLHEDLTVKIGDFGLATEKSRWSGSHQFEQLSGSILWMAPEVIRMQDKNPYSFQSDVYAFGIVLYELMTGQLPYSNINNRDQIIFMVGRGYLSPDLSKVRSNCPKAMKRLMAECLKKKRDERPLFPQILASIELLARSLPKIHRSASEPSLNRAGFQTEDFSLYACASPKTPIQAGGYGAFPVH
# Chain of recombinant HuBraf V600E (P15056 whole entry V600E): as above
IC50 (recombinant HuBraf V600E) [µM],IC50 (V600E mutant B-raf) [µM],SMILES
0.003,0.023,"Cc1ccc2c(Nc3ccc(C#N)cc3)nccc2c1Nc1ncccc1-c1ncnc2[nH]ccc12 [Example 40, 4-((6-methyl-5-((3-(7H-pyrrolo[2,3-d]pyrimidin-4-yl)-2-pyridinyl)amino)-1-isoquinolinyl)amino)benzonitrile]"
0.035,0.107,"Cc1ccc(OC(F)(F)F)cc1Nc1nccc2c(Nc3ncccc3-c3ncnc4[nH]ccc34)c(C)ccc12 [Example 41, 6-methyl-N-1-(2-methyl-5-((trifluoromethyl)oxy)phenyl)-N-5-(3-(7H-pyrrolo[2,3-d]pyrimidin-4-yl)-2-pyridinyl)-1,5-isoquinolinediamine]"
0.003,0.005,"Cc1ccc2c(Nc3ccc(Cl)cc3)nccc2c1Nc1ncccc1-c1ncnc2[nH]ccc12 [Example 42, N-1-(4-chlorophenyl)-6-methyl-N-5-(3-(7H-pyrrolo[2,3-d]pyrimidin-4-yl)-2-pyridinyl)-1,5-isoquinolinediamine]"
0.003,0.01,"C#Cc1cccc(Nc2nccc3c(Nc4ncccc4-c4ncnc5[nH]ccc45)c(C)ccc23)c1 [Example 43, N-1-(3-ethynylphenyl)-6-methyl-N~5~-(3-(7H-pyrrolo[2,3-d]pyrimidin-4-yl)-2-pyridinyl)-1,5-isoquinolinediamine]"
0.013,0.025,"Cc1ccc2c(Nc3ccc4c(c3)OC(F)(F)O4)nccc2c1Nc1ncccc1-c1ncnc2[nH]ccc12 [Example 44, N-1-(2,2-difluoro-1,3-benzodioxol-5-yl)-6-methyl-N-5-(3-(7H-pyrrolo[2,3-d]pyrimidin-4-yl)-2-pyridinyl)-1,5-isoquinolinediamine]"
0.008,0.015,"Cc1ccc2c(Nc3ccc4c(c3)C(F)(F)C(=O)N4C)nccc2c1Nc1ncccc1-c1ncnc2[nH]ccc12 [Example 45, 3,3-difluoro-1-methyl-5-((6-methyl-5-((3-(7H-pyrrolo[2,3-d]pyrimidin-4-yl)-2-pyridinyl)amino)-1-isoquinolinyl)amino)-1,3-dihydro-2H-indol-2-one]"
0.015,0.025,"Cc1ccc2c(Nc3ccc4c(c3)C(F)(F)C(=O)N4)nccc2c1Nc1ncccc1-c1ncnc2[nH]ccc12 [Example 46, 3,3-difluoro-5-((6-methyl-5-((3-(7H-pyrrolo[2,3-d]pyrimidin-4-yl)-2-pyridinyl)amino)-1-isoquinolinyl)amino)-1,3-dihydro-2H-indol-2-one]"
0.01,0.011,"Cc1ccc2c(Nc3ccc4c(c3)NC(=O)[C@@H]4C)nccc2c1Nc1ncccc1-c1ncnc2[nH]ccc12 [Example 47, (3R)-3-methyl-6-((6-methyl-5-((3-(7H-pyrrolo[2,3-d]pyrimidin-4-yl)-2-pyridinyl)amino)-1-isoquinolinyl)amino)-1,3-dihydro-2H-indol-2-one]"
0.011,0.015,"Cc1ccc2c(Nc3ccc4snc(C)c4c3)nccc2c1Nc1ncccc1-c1ncnc2[nH]ccc12 [Example 48, 6-methyl-N-1-(3-methyl-1,2-benzisothiazol-5-yl)-N-5-(3-(7H-pyrrolo[2,3-d]pyrimidin-4-yl)-2-pyridinyl)-1,5-isoquinolinediamine]"
0.007,0.01,"Cc1ccc2c(Nc3ccc4ncsc4c3)nccc2c1Nc1ncccc1-c1ncnc2[nH]ccc12 [Example 49, N-1-1,3-benzothiazol-6-yl-6-methyl-N-5-(3-(7H-pyrrolo[2,3-d]pyrimidin-4-yl)-2-pyridinyl)-1,5-isoquinolinediamine]"
0.012,0.045,"Cc1ccc2c(Nc3ccc4c(c3)NC(=O)C4)nccc2c1Nc1ncccc1-c1ncnc2[nH]ccc12 [Example 50, 6-((6-methyl-5-((3-(7H-pyrrolo[2,3-d]pyrimidin-4-yl)-2-pyridinyl)amino)-1-isoquinolinyl)amino)-1,3-dihydro-2H-indol-2-one]"
0.025,0.012,"Cc1ccc2c(Nc3ccc4c(c3)NC(=O)C4(C)C)nccc2c1Nc1ncccc1-c1ncnc2[nH]ccc12 [Example 51, 3,3-dimethyl-6-((6-methyl-5-((3-(7H-pyrrolo[2,3-d]pyrimidin-4-yl)-2-pyridinyl)amino)-1-isoquinolinyl)amino)-1,3-dihydro-2H-indol-2-one]"
0.007,0.007,"Cc1ccc2c(Nc3ccc4c(C)cc(=O)[nH]c4c3)nccc2c1Nc1ncccc1-c1ncnc2[nH]ccc12 [Example 52, 4-methyl-7-((6-methyl-5-((3-(7H-pyrrolo[2,3-d]pyrimidin-4-yl)-2-pyridinyl)amino)-1-isoquinolinyl)amino)-2(1H)-quinolinone]"
0.047,0.052,"Cc1ccc2c(Nc3ccc(C(F)(F)F)cc3)nccc2c1Nc1ncccc1-c1ncnc2[nH]ccc12 [Example 53, 6-methyl-N-5-(3-(7H-pyrrolo[2,3-d]pyrimidin-4-yl)-2-pyridinyl)-N-1-(4-(trifluoromethyl)phenyl)-1,5-isoquinolinediamine]"
0.205,0.099,"Cc1ccc2c(Nc3ccc4c(c3)C(F)(F)OC(F)(F)O4)nccc2c1Nc1ncccc1-c1ncnc2[nH]ccc12 [Example 54, 6-methyl-N-5-(3-(7H-pyrrolo[2,3-d]pyrimidin-4-yl)-2-pyridinyl)-N-1-(2,2,4,4-tetrafluoro-4H-1,3-benzodioxin-6-yl)-1,5-isoquinolinediamine]"
0.015,0.086,"Cc1ccc(C(F)(F)F)cc1Nc1nccc2c(Nc3nc(Cl)ncc3-c3ncnc4[nH]ccc34)c(C)ccc12 [Example 55, N-5-(2-chloro-5-(7H-pyrrolo[2,3-d]pyrimidin-4-yl)-4-pyrimidinyl)-6-methyl-N-1-(2-methyl-5-(trifluoromethyl)phenyl)-1,5-isoquinolinediamine]"
0.0006,0.004,"Cc1ccc2c(Nc3ccc(C#N)cc3)nccc2c1Nc1ncccc1-c1ncnc2[nH]cnc12 [Example 57, 4-((6-methyl-5-((3-(9H-purin-6-yl)-2-pyridinyl)amino)-1-isoquinolinyl)amino)benzonitrile]"
0.006,0.006,"Cc1ccc2c(Nc3cccc(C(F)(F)F)c3)nccc2c1Nc1ncccc1-c1ncnc2[nH]cnc12 [Example 58, 6-methyl-N-5-(3-(9H-purin-6-yl)-2-pyridinyl)-N-1-(3-(trifluoromethyl)phenyl)-1,5-isoquinolinediamine]"
0.006,0.006,"Cc1ccc2c(Nc3ccc4c(c3)OC(F)(F)O4)nccc2c1Nc1ncccc1-c1ncnc2[nH]cnc12 [Example 59, N-1-(2,2-difluoro-1,3-benzodioxol-5-yl)-6-methyl-N-5-(3-(9H-purin-6-yl)-2-pyridinyl)-1,5-isoquinolinediamine]"
0.01,0.233,"Cc1ccc2c(Nc3ccc(C#N)cc3)ncnc2c1Nc1ncccc1-c1ncnc2[nH]ccc12 [Example 60, 4-((7-methyl-8-((3-(7H-pyrrolo[2,3-d]pyrimidin-4-yl)-2-pyridinyl)amino)-4-quinazolinyl)amino)benzonitrile]"
0.002,0.103,"Cc1ccc2c(Nc3ccc(C#N)cc3)ncnc2c1Nc1ncccc1-c1ncnc2[nH]cnc12 [Example 61, 4-((7-methyl-8-((3-(9H-purin-6-yl)-2-pyridinyl)amino)-4-quinazolinyl)amino)benzonitrile]"
0.02,0.282,"Cc1ccc2c(Nc3ccc(Cl)cc3)nccc2c1Nc1ncccc1-c1ncnc2cc[nH]c12 [Example 62, N-1-(4-chlorophenyl)-6-methyl-N-5-(3-(5H-pyrrolo[3,2-d]pyrimidin-4-yl)-2-pyridinyl)-1,5-isoquinolinediamine]"
0.171,1,"Cc1ccc2c(Nc3ccc(C#N)cc3)nccc2c1Nc1ncccc1-c1ncnc2cc[nH]c12 [Example 63, 4-((6-methyl-5-((3-(5H-pyrrolo[3,2-d]pyrimidin-4-yl)-2-pyridinyl)amino)-1-isoquinolinyl)amino)benzonitrile]"
0.302,0.111,"Cc1ccc2c(Nc3ccc4c(c3)OC(F)(F)O4)nccc2c1Nc1ncccc1-c1ncnc2cc[nH]c12 [Example 64, N-1-(2,2-difluoro-1,3-benzodioxol-5-yl)-6-methyl-N-5-(3-(5H-pyrrolo[3,2-d]pyrimidin-4-yl)-2-pyridinyl)-1,5-isoquinolinediamine]"
0.008,0.008,"Cc1ccc2c(Nc3cccc(C(F)(F)F)c3)nccc2c1Nc1ncccc1-c1ncnc2[nH]ncc12 [Example 65, 6-methyl-N-5-(3-(1H-pyrazolo[3,4-d]pyrimidin-4-yl)-2-pyridinyl)-N-1-(3-(trifluoromethyl)phenyl)-1,5-isoquinolinediamine]"

# Source: patent US8557830B2, “RAF kinase modulators and methods of use” (Amgen Inc., priority 2007, dated 2013)
